Results published in patent US7629294B2, “Pyrazolopyrimidines” (Bayer CropScience LP, priority 2004, dated 2009).

Assay: physchem

SMILES | chromatographic logP (logP) | chromatographic logP (logPs)
COC(=O)c1cnn2c(N[C@@H](C)C(C)C)c(-c3ccc(C#N)cc3Cl)c(Cl)nc12 (single isomer, unassigned) [drawing 53 atropisomer A] | 3.72 | 
CSc1cnn2c(N3CCC(C)CC3)c(-c3ccc(F)cc3Cl)c(Cl)nc12 [Example I, 5-chloro-6-(2-chloro-4-fluorophenyl)-7-(4-methylpiperidin-1-yl)-3-methylmercapto-pyrazolo [2,3-a]pyrimidine] |  | 5.73
COC(=O)C(C(=O)OC)c1ccc(C#N)cc1Cl [dimethyl(2-chloro-4-cyanophenyl)malonate] | 2.34 | 
C[C@@H](Nc1c(-c2ccc(F)cc2Cl)c(Cl)nc2c(C(N)=NO)cnn12)C(C)(C)C | 2.47 | 
CCC(C)c1c(Cl)nc2c(C(=O)O)cnn2c1N[C@@H](C)C(C)C (stereo partly drawn) [Example XIV, 5-chloro-6-(sec-butyl)-7-[(S)-3-methyl-2-butylamino]pyrazolo[1,5-a]pyrimidine-3-carboxylic acid] | 3.52 | 
COC(=O)c1cnn2c(N[C@@H](C)C(F)(F)F)c(-c3ccc(C#N)cc3Cl)c(Cl)nc12 (single isomer, unassigned) [drawing 54 atropisomer A] | 3.32 | 
Cc1nnc(-c2cnn3c(O)c(-c4ccc(F)cc4Cl)c(O)nc23)o1 [Example XXX, 6-(2-Chloro-4-fluorophenyl)-3-(5-methyl-[1,3,4]oxadiazol-2-yl)pyrazolo[1,5-a]pyrimidine-5,7-diol] |  | 0.67
COC(=O)c1cnn2c(N[C@H](C)C(C)C)c(-c3ccc(C#N)cc3Cl)c(Cl)nc12 (single isomer, unassigned) [drawing 52 atropisomer A] | 3.64 | 
COC(=O)c1cnn2c(N[C@@H](C)C(C)C)c(C3CCCC3)c(Cl)nc12 [methyl 5-chloro-6-cyclopentyl-7-[(S)-3-methyl-2-butylamino]pyrazolo[1,5-a]pyrimidine-3-carboxylate] | 4.72 | 
COC(=O)c1cnn2c(O)c(-c3c(F)cccc3Cl)c(O)nc12 [methyl 6-(2-chloro-6-fluorophenyl)-5,7-dihydroxypyrazolo[1,5-a]pyrimidine-3-carboxylate] |  | 0.55
CC(Nc1c(-c2ccc(F)cc2Cl)c(Cl)nc2c(Br)cnn12)C(C)(C)C (centres unmarked) [3-bromo-5-chloro-6-(2-chloro-4-fluorophenyl)-N-(1,2,2-trimethylpropyl)pyrazolo[1,5-a]pyrimidin-7-amine] | 5.78 | 
C[C@@H](Nc1c(-c2ccc(F)cc2Cl)c(Cl)nc2c(C(N)=O)cnn12)C(C)(C)C | 3.88 | 
N#Cc1ccc(Br)c(Cl)c1 [3-chloro-4-bromobenzonitrile] | 2.82 | 
CCC(C)c1c(Cl)nc2c(C(=O)O)cnn2c1N[C@@H](C)C(F)(F)F (stereo partly drawn) [Example XII, 5-chloro-6-(sec-butyl)-7-[(S)-3-trifluoroisopropylamino]pyrazolo[1,5-a]pyrimidine-3-carboxylic acid] | 2.88 | 
CC(C)C(C)Nc1c(-c2ccc(F)cc2Cl)c(Cl)nc2c(/C=N/NC(N)=S)cnn12 (centres unmarked) [Thiosemicarbazone of 5-chloro-6-(2-chloro-4-fluorophenyl)-7-(1,2-dimethyl-propylamino)pyrazolo[1,5-a]pyrimidine-3-carbaldehyde] |  | 3.75
CNS(=O)(=O)c1cnn2c(NC(C)C(C)(C)C)c(-c3ccc(F)cc3Cl)c(Cl)nc12 (centres unmarked) [N-methyl-5-chloro-6-(2-chloro-4-fluorophenyl)-7-(1,2,2-trimethylpropylamino)pyrazolo[1,5-a]pyrimidine-3-sulphonamide] |  | 4.09
COC(=O)c1cnn2c(N[C@H](C)C(C)C)c(-c3c(F)cccc3Cl)c(Cl)nc12 [methyl 5-chloro-6-(2-chloro-6-fluorophenyl)-7-{[(1R)-1,2-dimethylpropyl]amino}pyrazolo[1,5-a]pyrimidine-3-carboxylate] |  | 4.12
COC(=O)c1cnn2c(NC(C)C(C)C)c(-c3sccc3C)c(OC)nc12 (centres unmarked) [methyl 7-(1,2-dimethylpropylamino)-5-methoxy-6-(3-methylthiophen-2-yl)pyrazolo[1,5-a]-pyrimidine-3-carboxylate] |  | 4.6
C[C@@H](Nc1c(-c2ccc(F)cc2Cl)c(Cl)nc2c(C3=NOCCN3)cnn12)C(C)(C)C [Example IX] | 3.23 | 
Cc1nnc(-c2cnn3c(O)c(-c4ccc(F)cc4Cl)c(O)nc23)[nH]1 [Example XXXI, 6-(2-chloro-4-fluorophenyl)-3-(5-methyl-[1,3,4]triazol-2-yl)pyrazolo[1,5-a]pyrimidine-5,7-diol] |  | 0.51
CC(C)[C@@H](C)Nc1c(-c2c(F)cccc2Cl)c(Cl)nc2c(C(=O)O)cnn12 [Example V, 5-chloro-6-(2-chloro-6-fluorophenyl)-7-{[(1R)-1,2-dimethylpropyl]amino}pyrazolo[1,5-a]pyrimidine-3-carboxylic acid] |  | 3.24
Cc1ccsc1-c1c(Cl)nc2c(-c3nsc(=O)o3)cnn2c1NC(C)C(C)C (stereo not drawn) [Example XXVI, 5-[5-Chloro-7-(1,2-dimethylpropylamino)-6-(3-methylthiophen-2-yl)pyrazolo[1,5-α]pyrimidin-3-yl]-[1,3,4]oxathiazol-2-one] |  | 5

SMILES | chromatographic logP (logP) | chromatographic logP (logPs)
CC(C)[C@@H](C)Nc1c(C2CCCC2)c(Cl)nc2c(C(=O)O)cnn12 [Example XV, 5-chloro-6-cyclopentyl-7-[(R)-3-methyl-2-butylamino]pyrazolo[1,5-a]pyrimidine-3-carboxylic acid] | 3.7 | 
COC(=O)c1cnn2c(N[C@@H](C)C(F)(F)F)c(C3CCCC3)c(Cl)nc12 [methyl 5-chloro-6-cyclopentyl-7-[(S)-3-trifluoroisopropylamino]pyrazolo[1,5-a]pyrimidine-3-carboxylate] | 3.89 | 
CC(C)C(C)Nc1c(-c2ccc(F)cc2Cl)c(Cl)nc2c(-c3nnc(N)s3)cnn12 (centres unmarked) [Example XXIX] |  | 3.57
CCC(C)c1c(Cl)nc2c(C(=O)OC)cnn2c1N[C@@H](C)C(C)C (stereo partly drawn) [methyl 5-chloro-6-(sec-butyl)-7-[(S)-3-methyl-2-butylamino]pyrazolo[1,5-a]pyrimidine-3-carboxylate] | 4.49 | 
Oc1nc2c(-c3ccccn3)cnn2c(O)c1-c1ccc(F)cc1Cl [Example XXXII, 6-(2-chloro-4-fluorophenyl)-3-pyridin-2-ylpyrazolo[1,5-a]pyrimidine-5,7-diol] |  | 0.91
Cc1ccsc1-c1c(Cl)nc2c(C(N)=O)cnn2c1NC(C)C(C)C (stereo not drawn) [5-chloro-7-(1,2-dimethylpropylamino)-6-(3-methylthiophen-2-yl)pyrazolo[1,5-α]pyrimidine-3-carboxamide] |  | 3.5
CC(C)[C@@H](C)Nc1c(-c2ccc(C#N)cc2Cl)c(Cl)nc2c(C(=O)O)cnn12 (single isomer, unassigned) [Example XIX] | 2.9 | 
CC1CCN(c2c(-c3ccc(F)cc3Cl)c(Cl)nc3c(S(=O)(=O)O)cnn23)CC1 [Example III, 5-chloro-6-(2-chloro-4-fluorophenyl)-7-(4-methylpiperidin-1-yl)pyrazolo[2,3-a]pyrimidine-3-sulphonic acid] |  | 2.48
Cc1nnc(-c2cnn3c(NC(C)C(C)C)c(-c4ccc(F)cc4Cl)c(Cl)nc23)o1 (centres unmarked) [Example XXXVI] |  | 3.94
C[C@@H](Nc1c(-c2ccc(F)cc2Cl)c(Cl)nc2c(-c3ncco3)cnn12)C(C)(C)C [Example VII] | 4.72 | 
CCC(C)c1c(Cl)nc2c(C(=O)OC)cnn2c1Cl (centres unmarked) [methyl 5,7-dichloro-6-(sec-butyl)-pyrazolo[1,5-a]pyrimidine-3-carboxylate] | 3.13 | 
CC(C)C(C)Nc1c(-c2ccc(F)cc2Cl)c(Cl)nc2c(-c3ccccn3)cnn12 (centres unmarked) [XXXVIII, [5-chloro-6-(2-chloro-4-fluorophenyl)-3-pyridin-2-ylpyrazolo[1,5-a]pyrimidin-7-yl](1,2-dimethylpropyl)amine] |  | 3.54
CC(C)NC(=O)c1cnn2c(N[C@H](C)C(C)C)c(-c3c(F)cccc3Cl)c(Cl)nc12 [Example IV, 5-chloro-6-(2-chloro-6-fluorophenyl)-7-{[(1R)-1,2-dimethylpropyl]amino}-N-isopropylpyrazolo[1,5-a]pyrimidine-3-carboxamide] |  | 4.72
CC(C)[C@H](C)Nc1c(C2CCCC2)c(Cl)nc2c(C(=O)O)cnn12 [Example XVI] | 3.7 | 
CC(C)[C@@H](C)Nc1c(-c2ccc(C(N)=O)cc2Cl)c(Cl)nc2c(C(=O)O)cnn12 (single isomer, unassigned) [Example XX] | 1.96 | 
C[C@H](Nc1c(C2CCCC2)c(Cl)nc2c(C(=O)O)cnn12)C(F)(F)F [Example XVII, 5-chloro-6-cyclopentyl-7-[(S)-3-trifluoroisopropylamino]pyrazolo[1,5-a]pyrimidine-3-carboxylic acid] | 3.06 | 
CCC(C)c1c(Cl)nc2c(C(=O)OC)cnn2c1N[C@@H](C)C(F)(F)F (stereo partly drawn) [methyl 5-chloro-6-(sec-butyl)-7-[(S)-3-trifluoroisopropylamino]pyrazolo[1,5-a]pyrimidine-3-carboxylate] | 3.76 | 
COC(=O)c1cnn2c(Cl)c(-c3ccc(C#N)cc3Cl)c(Cl)nc12 [methyl 5,7-dichloro-6-(2-chloro-4-cyanophenyl)pyrazolo[1,5-a]pyrimidine-3-carboxylate] | 2.85 | 
C[C@@H](Nc1c(-c2ccc(F)cc2Cl)c(Cl)nc2c(C3=NOCCO3)cnn12)C(C)(C)C [Example VIII] | 4.43 | 
CC1CCN(c2c(-c3ccc(F)cc3Cl)c(Cl)nc3c(S(C)(=O)=O)cnn23)CC1 [Example II, 5-chloro-6-(2-chloro-4-fluorophenyl)-7-(4-methylpiperidin-1-yl)-3-methylsulphonyl-pyrazolo[2,3-a]pyrimidine] |  | 4.2
COC(=O)c1cnn2c(Cl)c(C3CCCC3)c(Cl)nc12 [methyl 5,7-dichloro-6-cyclopentylpyrazolo[1,5-a]pyrimidine-3-carboxylate] | 3.31 | 
Cc1nnc(-c2cnn3c(NC(C)C(C)C)c(-c4ccc(F)cc4Cl)c(Cl)nc23)[nH]1 (centres unmarked) [XXXVII, [5-chloro-6-(2-chloro-4-fluorophenyl)-3-(5-methyl-[1,3,4]triazol-2-yl)pyrazolo[1,5-a]pyrimidin-7-yl](1,2-dimethylpropyl)-amine] |  | 2.91
